Test results reported in patent US11022604B2, “Dock derived compound against laminin receptor (37 LR) and uses thereof” (Purdue Research Foundation, priority 2017, dated 2021).

System: c-MYC binding site luciferase reporter in PC-3 cells
Test: c-MYC binding site luciferase reporter assay
Format: cell-based
Settings: 24 hours
Procedure: FIG. 9. Luciferase promoter Assay in PC-3 cells. PC-3 cells were treated with 1, 10, 50 μM C3 or DMSO control for 24 hours after a 24 transfection with Myc-Luc and B-Gal plasmid to normalize for transfection efficiency (n=6, mean±SEM). Relative light units calculated by normalizing Myc-Luc signal to B-gal signal. A one-way ANOVA was used for statistical analysis (P<0.05). The linear trend was also significant (pose test for linear trend, p, 0.05).
Wound Healing Assay. PC-3 cells were seeded in 6 well plates at 3×10^5 cells per well in complete media until the cells reached confluency. Three horizontal and three vertical scratches were made in the confluent monolayers using a standard 200 μL pipette tip and cellular debris were removed by washing with 1×DPBS three times. 1×RPMI-1640 supplemented with C3 or DMSO was added and cells were incubated for 48 hours as described previously. […] Images were uploaded and analyzed for scratch geometry using the tscratch program (96). First, global thresholding was performed, then individual images were manually inspected for single image threshold adjustment and scratch geometries were quantified. […] The samples were analyzed using the Dionex UltiMate 3000 RSLC Nano System coupled to the Q Exactive™ HF Hybrid Quadrupole-Orbitrap MS (Thermo Scientific). […]

O=C(c1cc(F)cc2c1OCOC2)N1CCN(C2c3ccccc3-c3ccccc32)CC1 [Compound C3, [4-(9h-fluoren-9-yl)piperazino](6-fluoro-4h-1,3-benzodioxin-8-yl)methanone]
reduction of c-myc binding activity (luciferase reporter) (PC-3, 50 μM): 36%
effect on c-myc luciferase reporter activity (PC-3, 1 and 10 μM): no significant effect
